Test results: patent US20230114728A1 (Venatorx Pharmaceuticals, Inc., priority 2019, published 2023)
≈ marks a conversion by molar mass, not a printed value. Where two headings read alike, the source gives them in different places.

Experiments:
Test in all cases: Liquid broth MIC in Fastidious broth
Format in all cases: cell-based
[1] = tested on: N. gonorrhoeae WHO Q; conditions: Neisseria gonorrhoeae
In short: (§1)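 Mosaic-PBP2 strains grown 24 h on chocolate agar (36 °C, 5% CO2), then direct-suspended in saline and OD600-adjusted. Twofold compound dilutions in Fastidious broth inoculated at 5×10^5 CFU/mL and incubated ~24 h at 36 °C, 5% CO2. MIC read visually as lowest concentration with <10% growth versus full-growth wells.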

[2] = tested on: N. gonorrhoeae WHO L; conditions: Neisseria gonorrhoeae, Fastidious broth
In short: (§2)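 Colonies were swabbed from chocolate agar after 24 h growth and standardised by optical density at 600 nm. Compounds were serially diluted twofold in Fastidious broth, and bacteria added to give 5×10^5 CFU/mL. After about 24 h at 36 °C in 5% CO2, the lowest concentration allowing under 10% growth was taken as MIC.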

[3] = tested on: N. gonorrhoeae ATCC 49226; conditions: Neisseria gonorrhoeae, ATCC49226, Fastidious broth
In short: as §2

[4] = tested on: N. gonorrhoeae WHO G; conditions: Neisseria gonorrhoeae, Fastidious broth
In short: as §2

[5] = tested on: N. gonorrhoeae FA1090; conditions: Neisseria gonorrhoeae, Fastidious broth
In short: as §2

[6] = tested on: N. gonorrhoeae WHO Z; conditions: Neisseria gonorrhoeae
In short: as §1

[7] = tested on: N. gonorrhoeae H041; conditions: Neisseria gonorrhoeae
In short: as §1

[8] = tested on: N. gonorrhoeae WHO K; conditions: Neisseria gonorrhoeae
In short: as §1

[9] = read-out: Minimum Inhibitory Concentration, WHO Q
[10] = N. gonorrhoeae WHO L, read-out: Minimum Inhibitory Concentration, WHO L
[11] = N. gonorrhoeae ATCC 49226, read-out: Minimum Inhibitory Concentration, ATCC 49226
[12] = N. gonorrhoeae WHO G, read-out: Minimum Inhibitory Concentration, WHO G
[13] = N. gonorrhoeae FA1090, read-out: Minimum Inhibitory Concentration, FA1090
[14] = read-out: Minimum Inhibitory Concentration, WHO Z
[15] = H041, read-out: Minimum Inhibitory Concentration, H041
[16] = read-out: Minimum Inhibitory Concentration, WHO K
[17] = read-out: Minimum Inhibitory Concentration, N. gonorrhoeae WHO Q
[18] = N. gonorrhoeae strain WHO L, read-out: Minimum Inhibitory Concentration, N. gonorrhoeae WHO L
[19] = N. gonorrhoeae strain ATCC 49226, read-out: Minimum Inhibitory Concentration, N. gonorrhoeae ATCC 49226
[20] = N. gonorrhoeae strain WHO G, read-out: Minimum Inhibitory Concentration, N. gonorrhoeae WHO G
[21] = N. gonorrhoeae strain FA1090, read-out: Minimum Inhibitory Concentration, N. gonorrhoeae FA1090
[22] = read-out: Minimum Inhibitory Concentration, N. gonorrhoeae WHO Z
[23] = H041, read-out: Minimum Inhibitory Concentration, N. gonorrhoeae H041
[24] = read-out: Minimum Inhibitory Concentration, N. gonorrhoeae WHO K

Row | Compound | MIC [1, 9] [µg/mL] | MIC [2, 10] [µg/mL] | MIC [3, 11] [µg/mL] | MIC [4, 12] [µg/mL] | MIC [5, 13] [µg/mL] | MIC [6, 14] [µg/mL] | MIC [7, 15] [µg/mL] | MIC [8, 16] [µg/mL] | MIC [1, 17] [µg/mL] | MIC [2, 18] [µg/mL] | MIC [3, 19] [µg/mL] | MIC [4, 20] [µg/mL] | MIC [5, 21] [µg/mL] | MIC [6, 22] [µg/mL] | MIC [7, 23] [µg/mL] | MIC [8, 24] [µg/mL]
1 | CCN1CCN(C(=O)NC(C(=O)N[C@H]2Cc3cccc(C(=O)O)c3OB2O)c2c(F)cc(NC(=O)NC)cc2F)C(=O)C1=O (stereo partly drawn) [Example 213, (3R)-3-(2-(2,6-difluoro-4-(3-methylureido)phenyl)-2-(4-ethyl-2,3-dioxopiperazine-1-carboxamido)acetamido)-2-hydroxy-3,4-dihydro-2H-benzo[e][1,2]oxaborinine-8-carboxylic acid] | > 64 | > 64 | 4 to 8 (≈ 6.49 to 13 µM) | 1 to 2 (≈ 1.62 to 3.24 µM) | < 0.125 | 16 to 32 (≈ 26 to 51.9 µM) | > 64 | > 64 |  |  |  |  |  |  |  | 
2 | NCCN1CCN(C(=O)N[C@H](C(=O)N[C@H]2Cc3cccc(C(=O)O)c3OB2O)c2c(F)cccc2Cl)C(=O)C1=O (single isomer, unassigned) [Example 206] | > 64 | > 64 | > 64 | > 64 | > 64 | > 64 | > 64 | > 64 |  |  |  |  |  |  |  | 
3 | O=C(O)c1cccc2c1OB(O)[C@@H](NC(=O)C(NC(=O)N1CCN(C3CNC3)C(=O)C1=O)c1c(F)cc(O)cc1F)C2 (stereo partly drawn) [Example 212, (3R)-3-(2-(4-(azetidin-3-yl)-2,3-dioxopiperazine-1-carboxamido)-2-(2,6-difluoro-4-hydroxyphenyl)acetamido)-2-hydroxy-3,4-dihydro-2H-benzo[e][1,2]oxaborinine-8-carboxylic acid] | > 64 | > 64 | 16 to 32 (≈ 27.2 to 54.5 µM) | 16 to 32 (≈ 27.2 to 54.5 µM) | 1 to 2 (≈ 1.7 to 3.41 µM) | > 64 | > 64 | > 64 |  |  |  |  |  |  |  | 
4 | CCN1CCN(C(=O)NC(C(=O)N[C@H]2Cc3cccc(C(=O)O)c3OB2O)c2cc([N+](=O)[O-])c(O)cc2F)C(=O)C1=O (stereo partly drawn) [Example 184, (3R)-3-(2-(4-ethyl-2,3-dioxopiperazine-1-carboxamido)-2-(2-fluoro-4-hydroxy-5-nitrophenyl)acetamido)-2-hydroxy-3,4-dihydro-2H-benzo[e][1,2]oxaborinine-8-carboxylic acid] |  |  |  |  |  |  |  |  | 4 to 8 (≈ 6.81 to 13.6 µM) | 16 to 32 (≈ 27.2 to 54.5 µM) | 4 to 8 (≈ 6.81 to 13.6 µM) | 1 to 2 (≈ 1.7 to 3.41 µM) | < 0.125 | 4 to 8 (≈ 6.81 to 13.6 µM) | 16 to 32 (≈ 27.2 to 54.5 µM) | 16 to 32 (≈ 27.2 to 54.5 µM)
5 | CCN1CCN(C(=O)N[C@H](C(=O)N[C@H]2Cc3cccc(C(=O)O)c3OB2O)c2ccc(C(=O)O)c(F)c2Cl)C(=O)C1=O (single isomer, unassigned) [Example 202] | > 64 | > 64 | 16 to 32 (≈ 26.5 to 52.9 µM) | 16 to 32 (≈ 26.5 to 52.9 µM) | 4 to 8 (≈ 6.61 to 13.2 µM) | 16 to 32 (≈ 26.5 to 52.9 µM) | > 64 | > 64 |  |  |  |  |  |  |  | 
6 | NS(=O)(=O)Nc1ccc(F)c(C(NC(=O)N2CCN(CCF)C(=O)C2=O)C(=O)N[C@H]2Cc3cccc(C(=O)O)c3OB2O)c1 (stereo partly drawn) [Example 198, (3R)-3-(2-(2-fluoro-5-(sulfamoylamino)phenyl)-2-(4-(2-fluoroethyl)-2,3-dioxopiperazine-1-carboxamido)acetamido)-2-hydroxy-3,4-dihydro-2H-benzo[e][1,2]oxaborinine-8-carboxylic acid] |  |  |  |  |  |  |  |  | 16 to 32 (≈ 25.1 to 50.1 µM) | > 64 | 16 to 32 (≈ 25.1 to 50.1 µM) | 4 to 8 (≈ 6.27 to 12.5 µM) | 0.25 to 0.5 (≈ 0.392 to 0.783 µM) | 16 to 32 (≈ 25.1 to 50.1 µM) | 16 to 32 (≈ 25.1 to 50.1 µM) | 16 to 32 (≈ 25.1 to 50.1 µM)
7 | CCN1CCN(C(=O)NC(C(=O)N[C@H]2Cc3cccc(C(=O)O)c3OB2O)c2cc(C#N)c(O)cc2F)C(=O)C1=O (stereo partly drawn) [Example 209, (3R)-3-(2-(5-cyano-2-fluoro-4-hydroxyphenyl)-2-(4-ethyl-2,3-dioxopiperazine-1-carboxamido)acetamido)-2-hydroxy-3,4-dihydro-2H-benzo[e][1,2]oxaborinine-8-carboxylic acid] | 16 to 32 (≈ 28.2 to 56.4 µM) | 16 to 32 (≈ 28.2 to 56.4 µM) | 4 to 8 (≈ 7.05 to 14.1 µM) | 4 to 8 (≈ 7.05 to 14.1 µM) | 0.25 to 0.5 (≈ 0.441 to 0.881 µM) | 4 to 8 (≈ 7.05 to 14.1 µM) | 16 to 32 (≈ 28.2 to 56.4 µM) | 16 to 32 (≈ 28.2 to 56.4 µM) |  |  |  |  |  |  |  | 
8 | CCN1CCN(C(=O)NC(C(=O)N[C@H]2Cc3cccc(C(=O)O)c3OB2O)c2c(F)cc(NC(C)=O)cc2F)C(=O)C1=O (stereo partly drawn) [Example 188, (3R)-3-(2-(4-acetamido-2,6-difluorophenyl)-2-(4-ethyl-2,3-dioxopiperazine-1-carboxamido)acetamido)-2-hydroxy-3,4-dihydro-2H-benzo[e][1,2]oxaborinine-8-carboxylic acid] |  |  |  |  |  |  |  |  | 16 to 32 (≈ 26.6 to 53.2 µM) | > 64 | 4 to 8 (≈ 6.65 to 13.3 µM) | 4 to 8 (≈ 6.65 to 13.3 µM) | 0.25 to 0.5 (≈ 0.416 to 0.831 µM) | 16 to 32 (≈ 26.6 to 53.2 µM) | > 64 | > 64
